According to US10149477B2, “Substituted pyrimidinium compounds for combating animal pests” (BASF SE, priority 2014, dated 2018):

Tests used:
Type in all cases: in vivo
[1] = test system: green peach aphid (Myzus persicae); assay: Green peach aphid, systemic, artificial diet in 96-well microtiter plates; settings: 72 h, 3 days, read-out: mortality in comparison with untreated controls
Description: a) For evaluating control of green peach aphid (Myzus persicae) through systemic means the test unit consisted of 96-well-microtiter plates containing liquid artificial diet under an artificial membrane.
The compounds were formulated using a solution containing 75% v/v water and 25% v/v DMSO. Different concentrations of formulated compounds were pipetted into the aphid diet, using a custom built pipetter, at two replications.
After application, 5-8 adult aphids were placed on the artificial membrane inside the microtiter plate wells. The aphids were then allowed to suck on the treated aphid diet and incubated at about 23±1° C. and about 50±5% relative humidity for 3 days. Aphid mortality and fecundity was then visually assessed.

[2] = test system: green peach aphid (Myzus persicae); assay: Green peach aphid, spray on infested bell pepper plants; settings: 120 h, sprayed bell pepper plants, after 5 days, read-out: mortality in comparison with untreated controls
Protocol: (§1) b) The active compounds were formulated by a Tecan liquid handler in 100% cyclohexa-none as a 10,000 ppm solution supplied in tubes. The 10,000 ppm solution was serially diluted in 100% cyclohexanone to make interim solutions. These served as stock solu-tions for which final dilutions were made by the Tecan in 50% acetone:50% water (v/v) into 10 or 20 ml glass vials. A nonionic surfactant (Kinetic®) was included in the solution at a volume of 0.01% (v/v).
(§2) The vials were then inserted into an automated electrostatic sprayer equipped with an atomizing nozzle for application to plants/insects.
Bell pepper plants at the first true-leaf stage were infested prior to treatment by placing heavily infested leaves from the main colony on top of the treatment plants. Aphids were allowed to transfer overnight to accomplish an infestation of 30-50 aphids per plant and the host leaves were removed. The infested plants were then sprayed by an automated electrostatic plant sprayer equipped with an atomizing spray nozzle. The plants were dried in the sprayer fume hood, removed, and then maintained in a growth room under fluorescent lighting in a 24-hr photoperiod at about 25° C. and about 20-40% relative humidity. Aphid mortality on the treated plants, relative to mortality on untreated control plants, was determined after 5 days.

[3] = test system: Orchid Thrips (Dichromothrips corbetti); assay: Orchid thrips, floral-immersion technique; settings: dipped orchid flowers, 72 hours after treatment, read-out: mortality in comparison with untreated controls
Protocol: Dichromothrips corbetti adults used for bioassay were obtained from a colony maintained continuously under laboratory conditions. For testing purposes, the test compound is diluted in a 1:1 mixture of acetone:water (vol:vol), plus 0.01% vol/vol Alkamuls® EL 620 surfactant.
Thrips potency of each compound was evaluated by using a floral-immersion technique. Plastic petri dishes were used as test arenas. All petals of individual, intact orchid flowers were dipped into treatment solution and allowed to dry. Treated flowers were placed into individual petri dishes along with about 20 adult thrips. The petri dishes were then covered with lids. All test arenas were held under continuous light and a temperature of about 28° C. for duration of the assay. After 3 days, the numbers of live thrips were counted on each flower, and along inner walls of each petri dish. The percent mortality was recorded 72 hours after treatment.

[4] = test system: Rice Green Leafhopper (Nephotettix virescens); assay: Rice green leafhopper, sprayed rice seedlings; settings: after 72 hours, read-out: mortality in comparison with untreated controls
Protocol: (§3) Rice seedlings were cleaned and washed 24 hours before spraying. The active compounds were formulated in 50:50 acetone:water (vol:vol), and 0.1% vol/vol surfactant (EL 620) was added. Potted rice seedlings were sprayed with 5 ml test solution, air dried, placed in cages and inoculated with 10 adults. Treated rice plants were kept at about 28-29° C. and relative humidity of about 50-60%. Percent mortality was recorded after 72 hours.

[5] = test system: Rice Brown Plant Hopper (Nilaparvata lugens); assay: Rice brown plant hopper, sprayed rice seedlings; settings: after 72 hours, read-out: mortality in comparison with untreated controls
Protocol: as §3, with “(vol:vol)” for “(vol:vol),”

[6] = test system: Cowpea Aphid (Aphis craccivora); assay: Cowpea aphid, spray on colonized cowpea plants; settings: sprayed cowpea plants, after 72 hours, read-out: mortality in comparison with untreated controls
Protocol: The active compound is dissolved at the desired concentration in a mixture of 1:1 (vol:vol) distilled water: acetone. Surfactant (Kinetic® HV) is added at a rate of 0.01% (vol/vol). The test solution is prepared at the day of use.
Potted cowpea plants were colonized with approximately 30-50 aphids of various stages by manually transferring a leaf tissue cut from infested plant 24 hours before application. Plants were sprayed with the test solutions using a DeVilbiss® hand atom-izer at 20-30 psi (=1.38 to 2.07 bar) after the pest population has been checked. Treat-ed plants are maintained on light carts at about 25-26° C. Percent mortality was assessed after 72 hours.

[7] = test system: Cotton Aphid (Aphis gossypii); assay: Cotton aphid, spray on infested cotton plants; settings: 120 h, sprayed cotton plants, after 5 days, read-out: mortality in comparison with untreated controls
Protocol: as §1, with “The” for “b) The”
as §2
Cotton plants at the cotyledon stage were infested with aphids prior to treatment by placing a heavily infested leaf from the main aphid colony on top of each cotyledon. Aphids were allowed to transfer overnight to accomplish an infestation of 80-100 aphids per plant and the host leaf was removed. The infested plants were then sprayed by an automated electrostatic plant sprayer equipped with an atomizing spray nozzle. The plants were dried in the sprayer fume hood, removed from the sprayer, and then main-tained in a growth room under fluorescent lighting in a 24-hr photoperiod at 25° C. and 20-40% relative humidity. Aphid mortality on the treated plants, relative to mortality on untreated control plants, was determined after 5 days.

[8] = test system: vetch aphid (Megoura viciae); assay: Vetch aphid, broad bean leaf disks in 24-well microtiter plates; settings: foliar, 120 h, sprayed leaf disks, 5 days, read-out: mortality in comparison with untreated controls
Protocol: For evaluating control of vetch aphid (Megoura viciae) through contact or systemic means the test unit consisted of 24-well-microtiter plates containing broad bean leaf disks.
The compounds were formulated using a solution containing 75% v/v water and 25% v/v DMSO. Different concentrations of formulated compounds were sprayed onto the leaf disks at 2.5 μl, using a custom built micro atomizer, at two replications.
After application, the leaf disks were air-dried and 5-8 adult aphids placed on the leaf disks inside the microtiter plate wells. The aphids were then allowed to suck on the treated leaf disks and incubated at about 23+1° C. and about 50+5% relative humidity for 5 days. Aphid mortality and fecundity was then visually assessed.

C[n+]1c([O-])c(-c2ccccc2)c(=O)n2c1SC(c1cnc(Cl)s1)C2 (centres unmarked) [compound 1]
> 75%: mortality at 2500 ppm [1] | mortality at 2500 ppm [2] | mortality at 500 ppm [3] | mortality at 500 ppm [4] | mortality at 500 ppm [5] | mortality at 500 ppm [6] | mortality at 300 ppm [7] | mortality at 2500 ppm [8]
